Measurements reported in patent US10059687B2, “Histone demethylase inhibitors” (CELGENE QUANTICEL RESEARCH, INC., priority 2015, dated 2018).

Key:
[1] = molecular target: JMJD3 (Homo sapiens, UniProt O15054); test: In vitro enzyme inhibition assay for JMJD3 activity (TR-FRET); assay type: biochemical; conditions: Table 5; one class given per A and B pair
Protocol: This assay determines the ability of a test compound to inhibit JMJD3 demethylase activity. Baculovirus expressed JMJD3 (GenBank Accession #NM-001080424, AA1043-end) was purchased from BPS Bioscience (Cat#50115).
The enzymatic assay of JMJD3 activity is based upon Time Resolved-Fluorescence Resonance Energy Transfer (TR-FRET) detection. The ability of test compounds to inhibit the activity of JMJD3 was determined in 384-well plate format under the following reaction conditions: 5 nM JMJD3, 250 nM H3K27me3-biotin labeled peptide (Anaspec cat #64367), 0.4 to 2 μM α-ketoglutaric acid in assay buffer of 50 mM HEPES, pH7.3, 0.005% Brij35, 0.5 mM TCEP, 0.2 mg/ml BSA, 50 μM sodium L-ascorbate, and 5 μM ammonium iron(II) sulfate. Reaction product was determined quantitatively by TR-FRET after the addition of detection reagent Phycolink Streptavidin-allophycocyanin (Prozyme) and Europium-anti-H3K27me2 antibody (PerkinElmer) in the presence of 5 mM EDTA in LANCE detection buffer (PerkinElmer) at a final concentration of 50 nM and 1 nM, respectively.
The assay reaction was initiated by the following: […] of the mixture of 750 nM H3K27me3-biotin labeled peptide and 1.2 to 6 μM alpha-ketoglutaric acid with 2 μL of 11-point serial diluted inhibitor in 3% DMSO were added to each well of plate, followed by the addition of 2 μl of 15 nM JMJD3 to initiate the reaction. The reaction mixture was incubated at RT for 30 min, and terminated by the addition of 6 μL of 5 mM EDTA in LANCE detection buffer containing 100 nM Phycolink Streptavidin-allophycocyanin and 2 nM Europium-anti-H3K27me2 antibody. Plates were read by EnVisionMultilabel Reader in TR-FRET mode (excitation at 320 nm, emission at 615 nm and 665 nm) after 1 hr incubation at RT. A ratio from the readout of 665/615 was calculated for each well and fitted to determine inhibition constant (IC50).

[2] = molecular target: JMJD2C (Homo sapiens (Human), UniProt Q9H3R0); test: In vitro enzyme inhibition assay for JMJD2C activity (TR-FRET); assay type: biochemical; conditions: Table 5; one class given per A and B pair
Chain of JMJD2C (Q9H3R0 2-372): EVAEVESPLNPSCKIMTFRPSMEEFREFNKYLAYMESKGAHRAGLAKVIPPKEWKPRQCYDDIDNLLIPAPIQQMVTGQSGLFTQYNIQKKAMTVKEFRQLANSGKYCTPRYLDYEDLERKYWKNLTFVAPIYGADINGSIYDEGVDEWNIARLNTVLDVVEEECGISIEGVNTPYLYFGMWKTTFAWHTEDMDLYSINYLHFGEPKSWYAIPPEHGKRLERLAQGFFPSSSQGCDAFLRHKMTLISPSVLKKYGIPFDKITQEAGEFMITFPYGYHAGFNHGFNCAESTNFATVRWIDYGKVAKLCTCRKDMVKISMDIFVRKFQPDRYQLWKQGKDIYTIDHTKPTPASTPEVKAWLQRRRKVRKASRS
Protocol: This assay determines the ability of a test compound to inhibit JMJD2C demethylase activity. Baculovirus expressed JMJD2C (GenBank Accession #BC143571, AA 2-372) was purchased from BPS Bioscience (Cat#50105).
The ability of test compounds to inhibit the activity of JMJD2C was determined in 384-well plate format under the following reaction conditions: 0.3 nM JMJD2C, 300 nM H3K9me3-biotin labeled peptide (Anaspec cat #64360), 2 μM alpha-ketoglutaric acid in assay buffer of 50 mM HEPES, pH7.3, 0.005% Brij35, 0.5 mM TCEP, 0.2 mg/ml BSA, 50 μM sodium L-ascorbate, and 2 μM ammonium iron(II) sulfate. Reaction product was determined quantitatively by TR-FRET after the addition of detection reagent Phycolink Streptavidin-allophycocyanin (Prozyme) and Europium-anti-di-methylated histone H3 lysine 9 (H3K9me2) antibody (PerkinElmer) in the presence of 5 mM EDTA in LANCE detection buffer (PerkinElmer) at a final concentration of 50 nM and 1 nM, respectively.
(§1) The assay reaction was initiated by the following: 2 μl of the mixture of 900 nM H3K9me3-biotin labeled peptide and 6 μM alpha-ketoglutaric acid with 2 μl of 11-point serial diluted inhibitor in 3% DMSO were added to each well of the plate, followed by the addition of 2 μl of 0.9 nM JMJD2C to initiate the reaction. The reaction mixture was incubated at RT for 30 min, and terminated by the addition of 6 μl of 5 mM EDTA in LANCE detection buffer containing 100 nM Phycolink Streptavidin-allophycocyanin and 2 nM Europium-anti-H3K9me2 antibody. Plates were read by EnVisionMultilabel Reader in TR-FRET mode (excitation at 320 nm, emission at 615 nm and 665 nm) after 1 hr incubation at RT. A ratio was calculated (665/615) for each well and fitted to determine inhibition constant (IC50).

[3] = molecular target: Jarid1B (Homo sapiens (Human), UniProt Q9UGL1); test: In vitro enzyme inhibition assay for Jarid1B activity (TR-FRET); assay type: biochemical; conditions: Table 5; one class given per A and B pair
Chain of Jarid1B (Q9UGL1 whole entry, species assumed): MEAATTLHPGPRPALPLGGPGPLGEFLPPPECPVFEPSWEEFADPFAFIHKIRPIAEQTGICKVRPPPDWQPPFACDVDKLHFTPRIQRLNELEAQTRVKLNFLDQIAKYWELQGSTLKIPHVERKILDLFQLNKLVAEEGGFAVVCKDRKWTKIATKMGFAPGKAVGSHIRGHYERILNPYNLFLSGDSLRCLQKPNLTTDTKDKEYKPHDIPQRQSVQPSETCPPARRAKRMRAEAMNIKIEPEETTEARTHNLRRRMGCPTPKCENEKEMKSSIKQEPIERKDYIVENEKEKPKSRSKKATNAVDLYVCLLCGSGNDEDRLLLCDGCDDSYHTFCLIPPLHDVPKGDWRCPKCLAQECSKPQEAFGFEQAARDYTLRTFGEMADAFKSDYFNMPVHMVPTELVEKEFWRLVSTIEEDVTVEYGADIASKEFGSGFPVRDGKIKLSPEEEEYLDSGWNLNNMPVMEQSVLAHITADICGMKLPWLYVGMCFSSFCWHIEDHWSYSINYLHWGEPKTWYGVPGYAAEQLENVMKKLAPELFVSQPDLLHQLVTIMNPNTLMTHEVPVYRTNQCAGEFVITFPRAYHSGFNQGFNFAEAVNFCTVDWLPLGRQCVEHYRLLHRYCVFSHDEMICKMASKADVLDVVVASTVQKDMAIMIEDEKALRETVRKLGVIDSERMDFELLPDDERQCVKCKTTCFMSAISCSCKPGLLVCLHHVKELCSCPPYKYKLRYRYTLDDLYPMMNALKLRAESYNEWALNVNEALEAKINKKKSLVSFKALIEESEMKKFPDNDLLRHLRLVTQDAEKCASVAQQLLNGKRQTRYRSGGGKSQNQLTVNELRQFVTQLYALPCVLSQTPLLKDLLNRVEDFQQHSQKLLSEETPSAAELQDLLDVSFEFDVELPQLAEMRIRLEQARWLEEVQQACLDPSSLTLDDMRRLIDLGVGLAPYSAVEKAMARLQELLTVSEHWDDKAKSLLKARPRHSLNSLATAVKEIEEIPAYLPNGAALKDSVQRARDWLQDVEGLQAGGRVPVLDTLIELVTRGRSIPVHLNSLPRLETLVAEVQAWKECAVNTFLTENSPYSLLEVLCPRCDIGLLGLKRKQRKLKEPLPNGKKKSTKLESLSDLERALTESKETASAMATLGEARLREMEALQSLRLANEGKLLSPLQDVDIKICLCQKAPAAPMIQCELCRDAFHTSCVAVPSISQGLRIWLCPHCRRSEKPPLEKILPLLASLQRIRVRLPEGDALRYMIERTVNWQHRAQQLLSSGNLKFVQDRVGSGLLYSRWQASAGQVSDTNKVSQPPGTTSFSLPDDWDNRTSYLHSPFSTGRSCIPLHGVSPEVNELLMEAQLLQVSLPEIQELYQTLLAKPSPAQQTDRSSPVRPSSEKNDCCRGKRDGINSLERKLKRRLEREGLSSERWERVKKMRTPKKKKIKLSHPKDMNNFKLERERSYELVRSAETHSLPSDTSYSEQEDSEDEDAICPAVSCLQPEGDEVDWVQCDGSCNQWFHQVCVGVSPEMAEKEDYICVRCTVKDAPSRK
Protocol: The ability of test compounds to inhibit the activity of Jarid1B was determined in 384-well plate format under the following reaction conditions: 0.8 nM Jarid1B, 300 nM H3K4me3-biotin labeled peptide (Anaspec cat #64357), 2 μM alpha-ketoglutaric acid in assay buffer of 50 mM HEPES, pH7.3, 0.005% Brij35, 0.5 mM TCEP, 0.2 mg/ml BSA, 50 μM sodium L-ascorbate, and 2 μM ammonium iron(II) sulfate. Reaction product was determined quantitatively by TR-FRET after the addition of detection reagent Phycolink Streptavidin-allophycocyanin (Prozyme) and Europium-anti-H3K4me or -H3K4me2 antibody (PerkinElmer) in the presence of 5 mM EDTA in LANCE detection buffer (PerkinElmer) at a final concentration of 25 nM and 1 nM, respectively.
as §1, with “nM H3K4me3-biotin” for “nM H3K9me3-biotin”, “DMSO was” for “DMSO were”, “of 2.4” for “of 0.9”, “nM Jarid1B” for “nM JMJD2C”, “containing 50” for “containing 100”, “nM Europium-anti-H3K4me/H3K4me2” for “nM Europium-anti-H3K9me2”

[4] = tested on: esophageal squamous cell carcinoma KYSE-150 cells; test: Cellular IC50 in KYSE-150 cells; assay type: cell-based; conditions: Homo sapiens, one class given per A and B pair
Text: Table 7 provides IC50 values of various compounds disclosed herein, tested in cellular human esophageal squamous cell carcinoma KYSE-150 cells: […]

SMILES	IC50 [1] [µM]	IC50 [2] [µM]	IC50 [3] [µM]	IC50 [4] [µM]
Cc1ccccc1-c1ccc2c(c1)CCN[C@H]2CNc1cnccc1C(=O)O [Example 8A, (R)-3-(((6-(o-tolyl)-1,2,3,4-tetrahydroisoquinolin-1-yl)methyl)amino)isonicotinic Acid]	1 to 10	1 to 10	≤ 0.1	0.1 to 1
Cc1ccccc1-c1ccc2c(c1)CCN[C@@H]2CNc1cnccc1C(=O)O [Example 8B, (S)-3-(((6-(o-tolyl)-1,2,3,4-tetrahydroisoquinolin-1-yl)methyl)amino) isonicotinic Acid]	1 to 10	1 to 10	≤ 0.1	0.1 to 1
CCc1ccccc1-c1ccc2c(c1)CCN[C@H]2CNc1cnccc1C(=O)O [Example 9A, (R)-3-(((6-(2-ethylphenyl)-1,2,3,4-tetrahydroisoquinolin-1-yl)methyl)amino)isonicotinic Acid]	1 to 10	1 to 10	≤ 0.1	0.1 to 1
CCc1ccccc1-c1ccc2c(c1)CCN[C@@H]2CNc1cnccc1C(=O)O [Example 9B, (S)-3-(((6-(2-ethylphenyl)-1,2,3,4-tetrahydroisoquinolin-1-yl)methyl)amino)isonicotinic Acid]	1 to 10	1 to 10	≤ 0.1	0.1 to 1
CCc1ccc(N(C)c2ccc3c(c2)CCN[C@H]3CNc2cnccc2C(=O)O)cc1 [Example 10A, (R)-3-(((6-((4-ethylphenyl)(methyl)amino)-1,2,3,4-tetrahydroisoquinolin-1-yl)methyl)amino)isonicotinic acid]	1 to 10	1 to 10	≤ 0.1	0.1 to 1
CCc1ccc(N(C)c2ccc3c(c2)CCN[C@@H]3CNc2cnccc2C(=O)O)cc1 [Example 10B, (S)-3-(((6-((4-ethylphenyl)(methyl)amino)-1,2,3,4-tetrahydroisoquinolin-1-yl)methyl)amino)isonicotinic acid]	1 to 10	1 to 10	≤ 0.1	0.1 to 1
Cc1ccc(N(C)c2ccc3c(c2)CCN(C)[C@H]3CNc2cnccc2C(=O)O)cc1 [Example 11A, (R)-3-(((2-methyl-6-(methyl(p-tolyl)amino)-1,2,3,4-tetrahydroisoquinolin-1-yl)methyl)amino)isonicotinic acid]	1 to 10	0.1 to 1	≤ 0.1	≤ 0.1
Cc1ccc(N(C)c2ccc3c(c2)CCN(C)[C@@H]3CNc2cnccc2C(=O)O)cc1 [Example 11B, (S)-3-(((2-methyl-6-(methyl(p-tolyl)amino)-1,2,3,4-tetrahydroisoquinolin-1-yl)methyl)amino)isonicotinic acid]	1 to 10	0.1 to 1	≤ 0.1	≤ 0.1
Cc1ccccc1-c1ccc2c(c1)CCN(C)[C@H]2CNc1cnccc1C(=O)O [Example 12A, (R)-3-(((2-methyl-6-(o-tolyl)-1,2,3,4-tetrahydroisoquinolin-1-yl)methyl)amino)isonicotinic acid]	1 to 10	1 to 10	≤ 0.1	≤ 0.1
Cc1ccccc1-c1ccc2c(c1)CCN(C)[C@@H]2CNc1cnccc1C(=O)O [Example 12B, (S)-3-(((2-methyl-6-(o-tolyl)-1,2,3,4-tetrahydroisoquinolin-1-yl)methyl)amino)isonicotinic acid]	1 to 10	1 to 10	≤ 0.1	≤ 0.1
CCc1ccc(N(C)c2ccc3c(c2)CCN(C)[C@H]3CNc2cnccc2C(=O)O)cc1 [Example 13A, (R)-3-(((6-((4-ethylphenyl)(methyl)amino)-2-methyl-1,2,3,4-tetrahydro-isoquinolin-1-yl)methyl)amino)isonicotinic acid]	1 to 10	0.1 to 1	≤ 0.1	≤ 0.1
CCc1ccc(N(C)c2ccc3c(c2)CCN(C)[C@@H]3CNc2cnccc2C(=O)O)cc1 [Example 13B, (S)-3-(((6-((4-ethylphenyl)(methyl)amino)-2-methyl-1,2,3,4-tetrahydro-isoquinolin-1-yl)methyl)amino)isonicotinic acid]	1 to 10	0.1 to 1	≤ 0.1	≤ 0.1
CCCc1ccc(N(C)c2ccc3c(c2)CCN(C)[C@H]3CNc2cnccc2C(=O)O)cc1 [Example 14A, (R)-3-(((2-methyl-6-(methyl (4-propylphenyl)amino)-1,2,3,4-tetrahydroisoquinolin-1-yl)methyl)amino)isonicotinic acid]	1 to 10	1 to 10	≤ 0.1	≤ 0.1
CCCc1ccc(N(C)c2ccc3c(c2)CCN(C)[C@@H]3CNc2cnccc2C(=O)O)cc1 [Example 14B, (S)-3-(((2-methyl-6-(methyl (4-propylphenyl)amino)-1,2,3,4-tetrahydroisoquinolin-1-yl)methyl)amino)isonicotinic acid]	1 to 10	1 to 10	≤ 0.1	≤ 0.1
Cc1ccc(N(C)c2ccc3c(c2)CN(C)[C@H]3CNc2cnccc2C(=O)O)cc1 [Example 18A, (R)-3-(((2-methyl-5-(methyl(p-tolyl)amino)isoindolin-1-yl)methyl)amino) isonicotinic acid]	1 to 10	0.1 to 1	≤ 0.1	≤ 0.1
Cc1ccc(N(C)c2ccc3c(c2)CN(C)[C@@H]3CNc2cnccc2C(=O)O)cc1 [Example 18B, (S)-3-(((2-methyl-5-(methyl(p-tolyl)amino)isoindolin-1-yl)methyl)amino) isonicotinic acid]	1 to 10	0.1 to 1	≤ 0.1	≤ 0.1
CCc1ccc(N(C)c2ccc3c(c2)CN(C)[C@H]3CNc2cnccc2C(=O)O)cc1 [Example 19A, (R)-3-(((5-((4-ethylphenyl)(methyl)amino)-2-methylisoindolin-1-yl)methyl)amino)isonicotinic acid]	1 to 10	0.1 to 1	≤ 0.1	≤ 0.1
